Laboratory results taken from patent publication US20250114367A1, “METHOD OF TREATING HAIR LOSS DISORDERS” (Sun Pharmaceutical Industries, Inc., priority 2023, published 2025).
Where “and” joins values, the source holds several entries; their conditions need not be identical. Equal entries are not always repeated.

Test system: subjects with AA
Experiment: Open-label extension (OLE) studies: SALT score over time
Type: in vivo, human
Settings: for percentage of subjects with a SALT score of ≤20: out to Week 52, pooled interim analysis
Method: The SALT score is calculated for a patient/subject by measuring the percentage of hair loss in each of the 4 areas of the scalp and adding the total to achieve a composite score (referred to herein as an absolute SALT score). Hair regrowth is reflected by a decrease in the SALT score. For example, no hair on the scalp would have a SALT score of 100 (i.e., an absolute SALT score) while complete hair regrowth would be a SALT score of 0 (i.e., an absolute SALT score).
Subjects completing 24 weeks of treatment with […] 8 mg twice daily in the Phase III trial were eligible to continue treatment in an open label extension trial. Following 52 additional weeks of treatment with […]™ 8 mg twice daily clinical response rates continued to increase with approximately 74% of the 80 subjects on 8 mg twice daily for 76 weeks achieving SALT ≤20.
The qualifying clinical trials including the following: 1. NCT03137381; 2. NCT03811912; 3. NCT03941548; 4. NCT04784533; 5. NCT04518995; and 6. NCT04797650 (all available a at https://clinicaltrials.gov).
The OLE Efficacy Population is defined as all subjects who received at least one dose of deuruxolitinib and had at least one post-baseline SALT assessment in OLE. The data analyses include subjects' data from the qualifying trial. Missing SALT scores were not imputed. The number of subjects decreases over time due to missing data, patient discontinuations, or subjects not yet at the later timepoints. Any SALT data after a qualifying dose change in the OLE was censored for all figures included here, except those showing the overall treatment sequence. A “qualifying dose change” referred to herein can be placebo in any qualifying trial to any dose of deuruxolitinib in the OLE (includes subjects who switched doses), or any dose of deuruxolitinib in a qualifying trial to any dose of deuruxolitinib in the OLE. Various analyses using SALT scores were conducted to best estimate the overall long-term effect of deuruxolitinib considering the issues with dose changes and decreasing patient numbers over time. “Any Dose” analysis tracks all active subjects over time pooled across the two doses. “As Observed” analysis censors subjects at the time of dose adjustment or study discontinuation. “LOCF” (last observation carried forward) analysis utilizes the last SALT score before dose change and carries it forward for all other timepoints up to 52 weeks.

For `[2H]C1([2H])C([C@@H](CC#N)n2cc(-c3ncnc4[nH]ccc34)cn2)C([2H])([2H])C([2H])([2H])C1([2H])[2H]` [CTP-543, (R)-3-(4-(7H-pyrrolo[2,3-d]pyrimidin-4-yl)-1H-pyrazol-1-yl)-3-(cyclopentyl-2,2,3,3,4,4,5,5-d8) propanenitrile], which “pooled mean SALT score” value (8 mg BID in OLE, placebo in the earlier studies) is on record?
Its value is 30.4.

What about the “OLE responders who maintained treatment response in the OLE” value (8 mg BID in the OLE without a qualifying dose change, 282 of 283 responders) of the same compound?
Its value is 99.6%.

What about the “pooled mean SALT score” value (12 mg BID in OLE, placebo in the earlier studies) of the same compound?
Its value is 43.0.

What about the “pooled mean SALT score” value (52 weeks, 8 mg BID in OLE, 8 mg of deuruxolitinib in the earlier studies) of the same compound?
Its value is 25.6.

And the “pooled mean SALT score” value (52 weeks, 8 mg BID or 12 mg BID in OLE, dosed with deuruxolitinib in the earlier studies)?
The value was 31.7.

And the “pooled mean SALT score” value (52 weeks, 8 mg BID or 12 mg BID in OLE, placebo in the earlier studies)?
The value was 43.6.

What about the “pooled mean SALT score” value (52 weeks, 12 mg BID in OLE, 12 mg of deuruxolitinib in the earlier studies) of the same compound?
The value was 27.7.

And the “subjects achieving SALT ≤20” value (80 subjects on 8 mg twice daily for 76 weeks (24 weeks Phase III + 52 weeks open label extension))?
Its value is “approximately 74%”.

And the “proportion of participants achieving SALT ≤20” value (OLE at Week 68, any dose (including switched doses), listed as deuruxolitinib)?
Its value is 62.6% and 63%.

What about the “proportion of participants achieving SALT ≤20 (FIG. 13A)” value (Week 68, 8 mg BID) of the same compound?
Its value is greater than 80%.

And the “patients achieving SALT 10” value (Week 68, 8 mg BID/8 mg BID group, As observed, 179/256)?
The value was 69.9%.

What about the “patients achieving SALT 10” value (Week 68, 8 mg BID/8 mg BID group, LOCF, 213/521) of the same compound?
The value was 40.9%.

And the “proportion of participants achieving SALT ≤20” value (Week 68, 8 mg BID, As Observed (AO), listed as deuruxolitinib)?
Its value is 76.6% and 77%.

What about the “proportion of participants achieving SALT ≤20” value (Week 68, 8 mg BID, LOCF) of the same compound?
The value was 48.8%.

What about the “proportion of participants achieving SALT ≤20” value (Week 68, 12 mg BID, As Observed (AO), listed as deuruxolitinib) of the same compound?
The value was 66.7% and 67%.

What about the “proportion of participants achieving SALT ≤20” value (Week 68, 12 mg BID, LOCF) of the same compound?
Its value is 60.9%.

What about the “patients achieving SALT 10” value (Week 68, placebo/8 mg BID group, As observed, 39/59) of the same compound?
Its value is 66.1%.

What about the “patients achieving SALT 10” value (Week 68, placebo/8 mg BID group, LOCF, 41/122) of the same compound?
Its value is 33.6%.

What about the “proportion of participants achieving SALT ≤20” value (established in the Qualifying Studies, any dose) of the same compound?
The value was 34.9%.

And the “Mean SALT score” value (out to 68 weeks, any dose in Qualifying Study and OLE, n=836, baseline 86.8 (n=984))?
Its value is 26.8.

What about the “percentage of subjects with a SALT score of ≤20” value (“percentage of subjects” for short) (8 mg twice per day in the OLE, listed as deuruxolitinib) of the same compound?
Its value is 63.6% and 64%.

What about the “percentage of subjects” value (12 mg twice per day in the OLE, listed as deuruxolitinib) of the same compound?
The value was 62.1% and 62%.

And the “percentage of subjects” value (any dose in the OLE (including switched doses), listed as deuruxolitinib)?
The value was 57.1% and 57%.
